The results in this text go back to ChEMBL document CHEMBL1201862, “PubChem BioAssay data set” (2004).

Among the test systems are A549; SW-620; UACC-257; A498; ACHN; SK-MEL-28; HOP-62; SK-MEL-2; SNB-19; SF-268; RXF 393; HL-60; HT-29; SF-295; UACC-62; MDA-MB-435; Malme-3M; SR; OVCAR-3.
What all share (test): DTP human tumour cell line panel, 48 h

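1) Cells in 96-well plates. 2) Compound, 48 h, 5 concentrations. 3) Linear interpolation between surrounding doses. 4) Unreached endpoint = highest concentration. At the GI50, growth is halved.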 Active and inactive are the calls of the source. No stated cut-off is given here; in the data, active = GI50 up to about 1.1 µM and inactive = higher.

What is called GI50 is the concentration at which growth is held to half of that of the control. In the case of `Cc1ccc(-c2c(C#N)c(-c3ccc(N(C)C)cc3)c(C#N)c(=O)n2NS(=O)(=O)c2ccccc2)cc1`, the GI50 with A549 is 36.5 µM (inactive); with SW-620, 39.2 µM (inactive); in the experiment on UACC-257 it was > 100 µM (inactive); in the experiment on A498, 51.4 µM (inactive); with ACHN, 42.7 µM (inactive); with SK-MEL-28, 45.9 µM (inactive). The GI50 is 46.2 µM (inactive) in the experiment on HOP-62; 37.5 µM (inactive) in the experiment with SK-MEL-2; 63.7 µM (inactive) in the experiment with SNB-19; 79.3 µM (inactive) in the experiment on SF-268; 22.7 µM (inactive) in the experiment with RXF 393; 44.8 µM (inactive) in the experiment on HL-60. Also, the GI50 in the experiment with HT-29 is 38.5 µM (inactive); in the experiment on SF-295, 23.1 µM (inactive); in the experiment with UACC-62 it was 30.8 µM (inactive); in the experiment on MDA-MB-435, 43.7 µM (inactive); in the experiment on Malme-3M, 87.9 µM (inactive).
As for `O=C1CC(C(O)C(O)C(O)CO)CC(=O)N1` (stereo not given), the GI50 in the experiment on A549, in the experiment with SW-620, in the experiment with UACC-257, with A498, with ACHN and in the experiment on SR was > 100 µM (inactive) throughout. The GI50 with SK-MEL-28, in the experiment with HOP-62, with SNB-19, with SF-268, in the experiment with RXF 393 and in the experiment on HL-60 was > 100 µM (inactive) each time. In addition, the GI50 in the experiment on HT-29, with SF-295, with MDA-MB-435, in the experiment on OVCAR-3 and in the experiment with Malme-3M was > 100 µM (inactive) throughout.
`CC(=O)OCC(OC(C)=O)C(OC(C)=O)C(OC(C)=O)C(=O)CNn1c(-c2ccccc2Cl)nc2ccc(Br)cc2c1=O` (stereo not given): the GI50 in the experiment with A549 was > 100 µM (inactive); with SW-620, > 100 µM (inactive); in the experiment with UACC-257 it was > 100 µM (inactive); with A498, 55.7 µM (inactive); with ACHN it was > 100 µM (inactive); with SR, 43.8 µM (inactive). The GI50 in the experiment with SK-MEL-28 is > 100 µM (inactive); in the experiment with HOP-62, > 100 µM (inactive); in the experiment on SK-MEL-2 it was > 100 µM (inactive); in the experiment with SNB-19, 81.1 µM (inactive); with SF-268, > 100 µM (inactive); with RXF 393, 67 µM (inactive). Besides, the GI50 is 23.8 µM (inactive) with HL-60; 96.4 µM (inactive) in the experiment on HT-29; > 100 µM (inactive) with SF-295; 30.6 µM (inactive) with UACC-62; 62.2 µM (inactive) with OVCAR-3; > 100 µM (inactive) with Malme-3M.
Turning to `CC(C)NC(=O)O/N=C1\CCC2[C@@H]3CC=C4C[C@@H](OC(=O)NC(C)C)CC[C@]4(C)C3CC[C@]12C` (stereo not given in full), the GI50 in the experiment with A549 was 1.47 µM (inactive); in the experiment with SW-620 it was 1.79 µM (inactive); with UACC-257, 0.685 µM (active); in the experiment with A498, 6.89 µM (inactive); in the experiment with ACHN, 0.971 µM (active); in the experiment on SR, 1.2 µM (inactive). Also, the GI50 was 1.59 µM (inactive) in the experiment with SK-MEL-28; 6.53 µM (inactive) in the experiment with HOP-62; 1.46 µM (inactive) in the experiment with SK-MEL-2; 2.02 µM (inactive) in the experiment on SNB-19; 1.49 µM (inactive) in the experiment on SF-268; 1.53 µM (inactive) in the experiment on RXF 393. For the same molecule, the GI50 is 0.632 µM (active) in the experiment with HL-60; 2.34 µM (inactive) in the experiment on HT-29; 1.54 µM (inactive) with SF-295; 1.3 µM (inactive) with UACC-62; 1.08 µM (active) in the experiment on OVCAR-3; 0.31 µM (active) with Malme-3M.
